Experimental data from publication PMC2981508 (Science (New York, N.Y.), 2009).

Key:
[1] = tested on: estrogen receptor; test: in vitro fluorescence polarization binding assay
[2] = biological target: T1, glucocorticoid receptor (Homo sapiens, UniProt P04150); test: in vitro fluorescence polarization binding assay
T1 sequence (P04150 1-777): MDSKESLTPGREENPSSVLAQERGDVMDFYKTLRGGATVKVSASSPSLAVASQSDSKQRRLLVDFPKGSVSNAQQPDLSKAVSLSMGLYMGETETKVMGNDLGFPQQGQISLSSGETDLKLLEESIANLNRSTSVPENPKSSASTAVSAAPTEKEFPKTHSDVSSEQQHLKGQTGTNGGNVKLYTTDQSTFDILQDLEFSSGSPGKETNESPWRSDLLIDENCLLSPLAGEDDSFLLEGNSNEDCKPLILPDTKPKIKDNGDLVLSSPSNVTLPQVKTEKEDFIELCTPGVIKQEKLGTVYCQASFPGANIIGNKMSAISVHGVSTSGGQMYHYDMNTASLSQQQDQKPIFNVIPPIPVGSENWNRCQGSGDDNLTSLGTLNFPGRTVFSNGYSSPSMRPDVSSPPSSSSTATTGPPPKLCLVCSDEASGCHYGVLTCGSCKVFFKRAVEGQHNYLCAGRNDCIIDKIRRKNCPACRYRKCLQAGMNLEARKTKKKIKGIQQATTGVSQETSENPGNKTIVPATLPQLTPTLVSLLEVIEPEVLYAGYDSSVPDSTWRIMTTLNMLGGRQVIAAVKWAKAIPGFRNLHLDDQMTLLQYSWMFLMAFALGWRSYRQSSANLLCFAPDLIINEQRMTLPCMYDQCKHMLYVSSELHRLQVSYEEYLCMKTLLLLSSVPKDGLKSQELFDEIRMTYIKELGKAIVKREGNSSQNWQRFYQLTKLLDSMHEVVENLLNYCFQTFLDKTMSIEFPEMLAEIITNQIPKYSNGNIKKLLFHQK

[3] = tested on: PSA and TMPRSS2 in parental LNCaP cells; test: Antagonism of R1881 induction of PSA and TMPRSS2 in parental LNCaP cells; assay type: cell-based, human
[4] = tested on: VCaP cells; test: VCaP apoptosis; assay type: cell-based, human; conditions: 10 μM, 1 or 3 days, PARP cleavage
[5] = biological target: T2, mutant AR protein (W741C) (Homo sapiens, UniProt P10275, W742C); assay type: cell-based
T2 sequence (P10275 1-920 W742C): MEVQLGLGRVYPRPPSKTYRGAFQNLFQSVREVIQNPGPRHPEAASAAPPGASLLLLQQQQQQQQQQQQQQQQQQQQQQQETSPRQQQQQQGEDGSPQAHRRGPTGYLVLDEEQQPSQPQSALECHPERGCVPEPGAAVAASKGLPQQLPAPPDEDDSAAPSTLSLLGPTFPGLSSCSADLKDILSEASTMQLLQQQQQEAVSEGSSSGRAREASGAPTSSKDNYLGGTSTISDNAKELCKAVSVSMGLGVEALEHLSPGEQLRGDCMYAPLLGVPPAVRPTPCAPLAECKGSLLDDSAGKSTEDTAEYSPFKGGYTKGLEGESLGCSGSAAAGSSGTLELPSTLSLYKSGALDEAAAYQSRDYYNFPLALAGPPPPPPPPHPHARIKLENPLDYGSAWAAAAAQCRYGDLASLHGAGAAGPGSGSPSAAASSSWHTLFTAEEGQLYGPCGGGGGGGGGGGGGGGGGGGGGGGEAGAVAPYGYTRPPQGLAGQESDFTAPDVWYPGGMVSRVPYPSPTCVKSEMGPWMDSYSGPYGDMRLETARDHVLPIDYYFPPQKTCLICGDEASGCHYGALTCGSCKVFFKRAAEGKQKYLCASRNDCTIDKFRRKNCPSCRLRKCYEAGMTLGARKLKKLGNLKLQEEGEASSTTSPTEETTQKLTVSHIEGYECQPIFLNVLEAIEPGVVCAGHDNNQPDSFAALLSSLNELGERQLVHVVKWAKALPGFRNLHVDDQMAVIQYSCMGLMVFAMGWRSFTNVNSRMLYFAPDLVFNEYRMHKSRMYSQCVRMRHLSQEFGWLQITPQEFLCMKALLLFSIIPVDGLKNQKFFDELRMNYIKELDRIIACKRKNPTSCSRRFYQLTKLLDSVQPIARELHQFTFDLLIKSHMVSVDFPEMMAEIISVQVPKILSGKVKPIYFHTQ

[6] = tested on: DU145 prostate cancer xenografts; test: AR-negative DU145 prostate cancer xenografts; design: species or system mice; conditions: mouse, in vivo
[7] = tested on: AR recruitment to PSA enhancer and TMPRSS2 enhancer in LNCaP/AR cells; test: Chromatin immunoprecipitation of AR in LNCaP/AR cells; assay type: cell-based, human
[8] = tested on: AR recruitment to PSA enhancer and TMPRSS2 enhancer in parental LNCaP cells; test: Chromatin immunoprecipitation of AR in parental LNCaP cells; assay type: cell-based, human
[9] = tested on: VP16-AR fusion protein; assay type: cell-based; conditions: Cos-7 cells, 24 hours

Question: Which results are given for `CNC(=O)c1ccc(N2C(=S)N(c3ccc(C#N)c(C(F)(F)F)c3)C(=O)C23CCC3)cc1F` [RD162]?
Answer: binding to estrogen receptor [1]: little to no binding; binding to glucocorticoid receptor [2]: little to no binding; Antagonism of induction of PSA and TMPRSS2 by R1881 [3]: antagonized induction; Apoptosis in VCaP cells [4]: induced apoptosis; Transcriptional activity of mutant AR (W741C) [5]: inhibited the transcriptional activity; growth of AR-negative DU145 xenografts [6]: neither bicalutamide nor RD162 impaired the growth; AR recruitment to PSA enhancer and TMPRSS2 enhancer [7]: Neither RD162 nor MDV3100 recruited AR; AR recruitment to PSA enhancer and TMPRSS2 enhancer [8]: Neither RD162 nor MDV3100 recruited AR; Activation of VP16-AR [9]: neither RD162 nor MDV3100 activated VP16-AR
